Reference: patent publication US8063096B2, “Spirocyclic 3-phenyl-3substituted-4-ketolactams and-lactones” (Bayer Cropscience AG, priority 2001, dated 2011)

Columns and labels:
Type in all cases: in vivo
Spodoptera frugiperda = Spodoptera frugiperda test; settings: 500 ppm active compound, cabbage leaves dipped
Description: (§1) [table] To produce a suitable preparation of active compound, 1 part by weight of active compound is mixed with the stated amounts of solvent and emulsifier, and the concentrate is diluted with emulsifier-containing water to the desired concentration. Cabbage leaves (Brassica oleracea) are treated by being dipped into the preparation of active compound of the desired concentration and are populated with caterpillars of the army worm (Spodoptera frugiperda) while leaves are still moist. After the desired period of time, the kill in % is determined. 100% means that all caterpillars have been killed; 0% means that none of the caterpillars have been killed.

Myzus persicae [1] = test: Myzus test (leaf dip, cabbage); settings: 500 ppm active compound, cabbage leaves dipped
Description: as §1, with “oleracea) which are heavily infested by peach aphids (Myzus persicae)” for “oleracea)”, “concentration.” for “concentration and are populated with caterpillars of the army worm (Spodoptera frugiperda) while leaves are still moist.”, “aphids” for “caterpillars”

Alopecurus [2] = test: Pre-emergence test, Alopecurus; settings: pre-emergence/greenhouse; 250 g of ai/ha; after three weeks
Description: (§2) [table] To produce a suitable preparation of active compound, 1 part by weight of active compound is mixed with the stated amount of solvent, the stated amount of emulsifier is added and the concentrate is diluted with water to the desired concentration. Seeds of the test plants are sown in normal soil. After about 24 hours, the soil is sprayed with the preparation of active compound such that the particular amounts of active compound desired are applied per unit area. The concentration of the spray liquor is chosen such that the particular amounts of active compound desired are applied in 1000 l of water/ha. After three weeks, the degree of damage to the plants is rated in % damage in comparison to the development of the untreated control. The figures denote: • 0%=no effect (like untreated control) • 100%=total destruction

Avena fatua [3] = test: Pre-emergence test, Avena fatua; settings: pre-emergence/greenhouse; 250 g of ai/ha; after three weeks
Description: as §2

Echinochloa [4] = test: Pre-emergence test, Echinochloa; settings: pre-emergence/greenhouse; 250 g of ai/ha; after three weeks
Description: as §2

Setaria [5] = test: Pre-emergence test, Setaria; settings: pre-emergence/greenhouse; 250 g of ai/ha; after three weeks
Description: as §2

Sinapis [6] = test: Pre-emergence test, Sinapis; settings: pre-emergence/greenhouse; 250 g of ai/ha; after three weeks
Description: as §2

Sugar beet [7] = test: Pre-emergence test, Sugar beet; settings: pre-emergence/greenhouse; 250 g of ai/ha; after three weeks; crop
Description: as §2

Alopecurus [8] = test: Post-emergence test, Alopecurus; settings: post-emergence/greenhouse; 250 g of ai/ha; after three weeks
Description: as §2, with “Test plants” for “Seeds”, “a height of 5-15 cm” for “the test plants”, “are” for “are sown in normal soil. After about 24 hours, the soil is”, “(=like” for “(like”

Avena fatua [9] = test: Post-emergence test, Avena fatua; settings: post-emergence/greenhouse; 250 g of ai/ha; after three weeks
Description: as §2, with “Test plants” for “Seeds”, “a height of 5-15 cm” for “the test plants”, “are” for “are sown in normal soil. After about 24 hours, the soil is”, “(=like” for “(like”

Echinochloa [10] = test: Post-emergence test, Echinochloa; settings: post-emergence/greenhouse; 250 g of ai/ha; after three weeks
Description: as §2, with “Test plants” for “Seeds”, “a height of 5-15 cm” for “the test plants”, “are” for “are sown in normal soil. After about 24 hours, the soil is”, “(=like” for “(like”

Setaria [11] = test: Post-emergence test, Setaria; settings: post-emergence/greenhouse; 250 g of ai/ha; after three weeks
Description: as §2, with “Test plants” for “Seeds”, “a height of 5-15 cm” for “the test plants”, “are” for “are sown in normal soil. After about 24 hours, the soil is”, “(=like” for “(like”

Sinapis [12] = test: Post-emergence test, Sinapis; settings: post-emergence/greenhouse; 250 g of ai/ha; after three weeks
Description: as §2, with “Test plants” for “Seeds”, “a height of 5-15 cm” for “the test plants”, “are” for “are sown in normal soil. After about 24 hours, the soil is”, “(=like” for “(like”

Sugar beet [13] = test: Post-emergence test, Sugar beet; settings: post-emergence/greenhouse; 250 g of ai/ha; after three weeks; crop
Description: as §2, with “Test plants” for “Seeds”, “a height of 5-15 cm” for “the test plants”, “are” for “are sown in normal soil. After about 24 hours, the soil is”, “(=like” for “(like”

Amaranthus [14] = test: Pre-emergence test, Amaranthus; settings: pre-emergence/greenhouse; 250 g of ai/ha; after three weeks
Description: as §2

Amaranthus [15] = test: Post-emergence test, Amaranthus; settings: post-emergence/greenhouse; 250 g of ai/ha; after three weeks
Description: as §2, with “Test plants” for “Seeds”, “a height of 5-15 cm” for “the test plants”, “are” for “are sown in normal soil. After about 24 hours, the soil is”, “(=like” for “(like”

Phaedon cochleariae = test: Phaedon larvae test; settings: 500 ppm active compound, cabbage leaves dipped
Description: as §1, with “with larvae” for “with caterpillars”, “the mustard beetle (Phaedon cochleariae)” for “the army worm (Spodoptera frugiperda)”, “all beetle larvae” for “all caterpillars”, “the beetle larvae” for “the caterpillars”

Meloidogyne incognita = test: Meloidogyne test (gall formation on lettuce roots); settings: 20 ppm active compound, nematicidal action by gall formation
Description: [table] To produce a suitable preparation of active compound, 1 part by weight of active compound is mixed with the stated amounts of solvent and emulsifier, and the concentrate is diluted with water to the desired concentration. Vessels are filled with sand, solution of active compound, Meloidogyne incognita egg/larvae suspension and lettuce seeds. The lettuce seeds germinate and the plants develop. On the roots, galls develop. After the desired period of time, the nematicidal action is determined in % by the formation of galls. 100% means that no galls have been found; 0% means that the number of galls on the treated plants corresponds to that of the untreated control.

Aphis gossypii [16] = test: Aphis gossypii test (leaf dip, cotton); settings: 500 ppm active compound, cotton leaves dipped
Description: as §1, with “Cotton” for “Cabbage”, “(Gossypium hirsutum) which are heavily infested by the cotton aphids (Aphis gossypii)” for “(Brassica oleracea)”, “concentration.” for “concentration and are populated with caterpillars of the army worm (Spodoptera frugiperda) while leaves are still moist.”, “aphids” for “caterpillars”

Plutella xylostella = test: Plutella test; settings: 500 ppm active compound, cabbage leaves dipped
Description: as §1, with “diamondback moth (Plutella xylostella)” for “army worm (Spodoptera frugiperda)”

Aphis gossypii [17] = test: Test for persistency: Aphis gossypii (root-systemic action); settings: 4 ppm in soil, cotton
Description: (§3) [table] To produce a suitable preparation of active compound, 1 part by weight of active compound is mixed with the stated amounts of solvent and emulsifier, and the concentrate is diluted with water to the desired concentration. The preparation of active compound is mixed intimately with the soil. The stated concentration refers to the amount of active compound per volume unit of soil (mg/l). The treated soil is filled into pots, and into these pots is planted cotton at the cotyledon stage. In this way, the active compound can be taken up from the soil into the roots of the plants and be transported into the leaves. After the stated number of days, cotton aphids (Aphis gossypii) are, in infection chambers, placed on the leaves. After the desired period of time, the kill in % is determined. 100% means that all aphids have been killed; 0% means that none of the aphids have been killed.

Myzus persicae [18] = test: Test for persistency: Myzus persicae (root-systemic action); settings: 4 ppm in soil, broad beans
Description: as §3, with “pre-germinated broad beans.” for “cotton at the cotyledon stage.”, “peach” for “cotton”, “(Myzus persicae)” for “(Aphis gossypii)”

## COC1CCC2(CC1)NC(=O)C(Cl)(c1ccc(C)cc1Cl)C2=O (stereo not shown) [Ex. I-1-a-3]
Spodoptera frugiperda
  Kill rate in % after 7d: 100%

## CCc1cc(Br)cc(Cl)c1C1(Cl)C(=O)NC2(CCC(OC)CC2)C1=O (stereo not shown) [Ex. I-1-a-44]
Myzus persicae [1]
  Kill rate in % after 6d: 98%
Alopecurus [2]
  % damage, Alopecurus: 100%
Avena fatua [3]
  % damage, Avena fatua: 100%
Echinochloa [4]
  % damage, Echinochloa: 100%
Setaria [5]
  % damage, Setaria: 100%
Sinapis [6]
  % damage, Sinapis: 80%
Sugar beet [7]
  % damage, Sugar beet: 0%
Alopecurus [8]
  % damage, Alopecurus: 95%
Avena fatua [9]
  % damage, Avena fatua: 100%
Echinochloa [10]
  % damage, Echinochloa: 100%
Setaria [11]
  % damage, Setaria: 100%
Sinapis [12]
  % damage, Sinapis: 70%
Sugar beet [13]
  % damage, Sugar beet: 0%

## COC1CCC2(CC1)NC(=O)C(Cl)(c1c(C)cc(Br)cc1Cl)C2=O (stereo not shown) [Ex. I-1-a-10]
Myzus persicae [1]
  Kill rate in % after 6d: 99%
Alopecurus [2]
  % damage, Alopecurus: 100%
Avena fatua [3]
  % damage, Avena fatua: 90%
Echinochloa [4]
  % damage, Echinochloa: 100%
Setaria [5]
  % damage, Setaria: 100%
Amaranthus [14]
  % damage, Amaranthus: 80%
Sinapis [6]
  % damage, Sinapis: 90%
Alopecurus [8]
  % damage, Alopecurus: 90%
Avena fatua [9]
  % damage, Avena fatua: 90%
Echinochloa [10]
  % damage, Echinochloa: 100%
Setaria [11]
  % damage, Setaria: 100%
Amaranthus [15]
  % damage, Amaranthus: 80%
Sinapis [12]
  % damage, Sinapis: 80%

## CCc1cc(Br)cc(C)c1C1(Cl)C(=O)NC2(CCC(OC)CC2)C1=O (stereo not shown) [Ex. I-1-a-26]
Phaedon cochleariae
  Kill rate in % after 7d: 100%
Alopecurus [8]
  % damage, Alopecurus: 100%
Avena fatua [9]
  % damage, Avena fatua: 100%
Echinochloa [10]
  % damage, Echinochloa: 100%
Setaria [11]
  % damage, Setaria: 100%
Sinapis [12]
  % damage, Sinapis: 80%
Sugar beet [13]
  % damage, Sugar beet: 0%

## CCc1cc(Cl)cc(CC)c1C1(Cl)C(=O)NC2(CCC(OC)CC2)C1=O (stereo not shown) [Ex. I-1-a-43]
Meloidogyne incognita
  Kill rate in % after 14d: 95%
Myzus persicae [1]
  Kill rate in % after 6d: 90%
Alopecurus [2]
  % damage, Alopecurus: 95%
Avena fatua [3]
  % damage, Avena fatua: 100%
Echinochloa [4]
  % damage, Echinochloa: 100%
Setaria [5]
  % damage, Setaria: 100%
Sugar beet [7]
  % damage, Sugar beet: 0%
Alopecurus [8]
  % damage, Alopecurus: 90%
Avena fatua [9]
  % damage, Avena fatua: 100%
Echinochloa [10]
  % damage, Echinochloa: 100%
Setaria [11]
  % damage, Setaria: 100%
Sinapis [12]
  % damage, Sinapis: 70%
Sugar beet [13]
  % damage, Sugar beet: 0%

## COC1CCC2(CC1)NC(=O)C(Cl)(c1cc(C)ccc1Br)C2=O (stereo not shown) [Ex. I-1-a-28]
Aphis gossypii [16]
  Kill rate in % after 6d: 90%
Phaedon cochleariae
  Kill rate in % after 7d: 100%
Plutella xylostella
  Kill rate in % after 7d: 100%

## CCOC1CCC2(CC1)NC(=O)C(Cl)(c1c(C)cc(C)cc1C)C2=O (stereo not shown) [Ex. I-1-a-4]
Alopecurus [2]
  % damage, Alopecurus: 100%
Avena fatua [3]
  % damage, Avena fatua: 90%
Echinochloa [4]
  % damage, Echinochloa: 100%
Setaria [5]
  % damage, Setaria: 100%
Amaranthus [14]
  % damage, Amaranthus: 100%
Sinapis [6]
  % damage, Sinapis: 95%
Alopecurus [8]
  % damage, Alopecurus: 95%
Avena fatua [9]
  % damage, Avena fatua: 95%
Echinochloa [10]
  % damage, Echinochloa: 100%
Setaria [11]
  % damage, Setaria: 100%
Amaranthus [15]
  % damage, Amaranthus: 90%
Sinapis [12]
  % damage, Sinapis: 95%

## Cc1cc(Br)cc(Cl)c1C1(Cl)C(=O)NC2(CCOCC2)C1=O (stereo not shown) [Ex. I-1-c-2]
Plutella xylostella
  Kill rate in % after 7d: 100%
Aphis gossypii [17]; infection after 7 d
  Kill rate in % after 7d: 100%
Aphis gossypii [17]; infection after 21 d
  Kill rate in % after 7d: 98^ %
Aphis gossypii [17]; infection after 35 d
  Kill rate in % after 7d: 98^ %
Myzus persicae [18]; infection after 7 d
  Kill rate in % after 7d: 100%
Myzus persicae [18]; infection after 21 d
  Kill rate in % after 7d: 100%
Myzus persicae [18]; infection after 35 d
  Kill rate in % after 7d: 99%

## COC1CCC2(CC1)NC(=O)C(Cl)(c1c(Cl)cc(C)cc1Cl)C2=O (stereo not shown) [Ex. I-1-a-6]
Phaedon cochleariae
  Kill rate in % after 7d: 100%
Alopecurus [2]
  % damage, Alopecurus: 100%
Avena fatua [3]
  % damage, Avena fatua: 95%
Echinochloa [4]
  % damage, Echinochloa: 95%
Setaria [5]
  % damage, Setaria: 100%
Amaranthus [14]
  % damage, Amaranthus: 100%
Sinapis [6]
  % damage, Sinapis: 90%
Alopecurus [8]
  % damage, Alopecurus: 95%
Avena fatua [9]
  % damage, Avena fatua: 95%
Echinochloa [10]
  % damage, Echinochloa: 100%
Setaria [11]
  % damage, Setaria: 100%
Amaranthus [15]
  % damage, Amaranthus: 90%
Sinapis [12]
  % damage, Sinapis: 80%

## Cc1cc(Br)cc(C)c1C1(Cl)C(=O)NC2(CCOCC2)C1=O (stereo not shown) [Ex. I-1-c-3]
Aphis gossypii [16]
  Kill rate in % after 6d: 90%
Plutella xylostella
  Kill rate in % after 7d: 100%
Aphis gossypii [17]; infection after 7 d
  Kill rate in % after 7d: 100%
Aphis gossypii [17]; infection after 21 d
  Kill rate in % after 7d: 98^ %
Aphis gossypii [17]; infection after 35 d
  Kill rate in % after 7d: 98^ %
Myzus persicae [18]; infection after 7 d
  Kill rate in % after 7d: 99%
Myzus persicae [18]; infection after 21 d
  Kill rate in % after 7d: 100%
Myzus persicae [18]; infection after 35 d
  Kill rate in % after 7d: 99%

## CCc1cc(Br)cc(C)c1C1(Cl)C(=O)NC2(CCCOC2)C1=O (stereo not shown) [Ex. I-1-b-12]
Alopecurus [2]
  % damage, Alopecurus: 95%
Avena fatua [3]
  % damage, Avena fatua: 100%
Echinochloa [4]
  % damage, Echinochloa: 100%
Setaria [5]
  % damage, Setaria: 100%
Sugar beet [7]
  % damage, Sugar beet: 0%
Alopecurus [8]
  % damage, Alopecurus: 90%
Avena fatua [9]
  % damage, Avena fatua: 100%
Echinochloa [10]
  % damage, Echinochloa: 100%
Setaria [11]
  % damage, Setaria: 100%
Sugar beet [13]
  % damage, Sugar beet: 0%
